Source: patent US10045983B2, “Heteroaryl pyridone and aza-pyrodine compounds” (Genentech, Inc., priority 2011, dated 2018)

Assay: CD69 Whole Blood Assay (CD69 Hu Blood FACS)
Assay type: cell-based, human
Settings: Lymphocyte; human whole blood, anti-IgM activated B lymphocytes, FACS; IC70; Table 1; read-out: CD69 Hu Blood FACS IC70
Source text: A CD69 Whole Blood Assay can be conducted on Formula I compounds to determine the ability of compounds to inhibit the production of CD69 by B lymphocytes in human whole blood activated by crosslinking surface IgM with goat F(ab′)2 anti-human IgM (Example 907). CD69 is a type II C-type lectin involved in lymphocyte migration and cytokine secretion. CD69 expression represents one of the earliest available indicators of leukocyte activation and its rapid induction occurs through transcriptional activation (Vazquez et al (2009) Jour. of Immunology Published Oct. 19, 2009, doi:10.4049/jimmunol.0900839). Concentration-dependent inhibition of antigen receptor stimulation by selective Btk inhibitors induces cell surface expression of the lymphocyte activation marker CD69 (Honigberg et al (2010) Proc. Natl. Acad. Sci. 107(29):13075-13080). Thus, CD69 inhibition by selective Btk inhibitors may be correlated with therapeutic efficacy of certain B-cell disorders.

`C[C@@H]1CN(c2ccc(Nc3cc(-c4ccnc(N5CCc6c(cc7n6CCCC7)C5=O)c4CO)cn(C)c3=O)nc2)[C@@H](C)CN1C1COC1` [Example 155, 2-{5-[5-((2S,5R)-2,5-Dimethyl-4-oxetan-3-yl-piperazin-1-yl)-pyridin-2-ylamino]-3′-hydroxymethyl-1-methyl-6-oxo-1,6-dihydro-[3,4′]bipyridinyl-2′-yl}-2,3,5,6,7,8-hexahydro-4H-2,4b-diaza-fluoren-1-one] and `CC[C@H]1CN(C2COC2)CCN1c1ccc(Nc2cc(-c3ccnc(N4CCc5c(cc6n5CCCC6)C4=O)c3CO)cn(C)c2=O)nc1` [Example 161, 2-{5-[5-((S)-2-Ethyl-4-oxetan-3-yl-piperazin-1-yl)-pyridin-2-ylamino]-3′-hydroxymethyl-1-methyl-6-oxo-1,6-dihydro-[3,4′]bipyridinyl-2′-yl}-2,3,5,6,7,8-hexahydro-4H-2,4b-diaza-fluoren-1-one] are within 1.5-fold of each other in IC70: 45.4 nM for the first, 64 nM for the second.

Going from `C[C@@H]1CN(C2COC2)CCN1c1ccc(Nc2cc(-c3ccnc(N4CCn5c(cc6c5CCCC6)C4=O)c3CO)cn(C)c2=O)nc1` [Example 137, (R)-2-(3-(hydroxymethyl)-4-(1-methyl-5-(5-(2-methyl-4-(oxetan-3-yl)piperazin-1-yl)pyridin-2-ylamino)-6-oxo-1,6-dihydropyridin-3-yl)pyridin-2-yl)-3,4,6,7,8,9-hexa-hydropyrazino[1,2-a]indol-1(2H)-one] to `Cn1cc(-c2ccnc(-n3ncc4c5c(sc4c3=O)CCCC5)c2CO)cc(Nc2ccc(N3CCN(C4COC4)CC3)cn2)c1=O` [Example 124, 3-Hydroxymethyl-4-[1-methyl-5-(5-(4-(oxetan-3-yl)piperazin-1-yl)pyridine-2-ylamino)-6-oxo-1,6-dihydropyridin-3-yl]-2-{6-oxo-8-thia-4,5-diazatricyclo[7.4.0.0^2,7]trideca-1(9),2(7),3-trien-5-yl}pyridine], the IC70 falls from 64.6 nM to 36.2 nM (1.8-fold).

For `CN1CCn2nc(Nc3cc(-c4ccnc(N5CCn6c7c(c(F)c6C5=O)CCCC7)c4CO)cn(C)c3=O)cc2C1` [Example 135, 10-Fluoro-2-(3-(hydroxymethyl)-4-(1-methyl-5-(5-methyl-4,5,6,7-tetrahydropyrazolo[1,5-a]pyrazin-2-ylamino)-6-oxo-1,6-dihydropyridin-3-yl)pyridin-2-yl)-3,4,6,7,8,9-hexahydropyrazino[1,2-a]indol-1(2H)-one], the IC70 was 107 nM.

Same assay, conditions: Lymphocyte; human whole blood, anti-IgM activated B lymphocytes, FACS; IC70; Table 2 (unit inferred); read-out: CD69 Hu Blood FACS (IC70)

Going from `CCn1nc(Nc2cc(-c3ccnc(N4CCn5c(cc6c5CC(C)(C)C6)C4=O)c3CO)cn(C)c2=O)cc1C` [Example 252, 3-[4-[5-[(1-ethyl-5-methyl-pyrazol-3-yl)amino]-1-methyl-6-oxo-3-pyridyl]-3-(hydroxymethyl)-2-pyridyl]-7,7-dimethyl-1,2,6,8-tetrahydrocyclopenta[3,4]pyrrolo[3,5-b]pyrazin-4-one] to `Cn1ccc(Nc2cc(-c3ccnc(N4CCn5c(cc6c5CC(C)(C)C6)C4=O)c3CO)cn(C)c2=O)n1` [Example 290, 3-[3-(hydroxymethyl)-4-[1-methyl-5-[(1-methylpyrazol-3-yl)amino]-6-oxo-3-pyridyl]-2-pyridyl]-7,7-dimethyl-1,2,6,8-tetrahydrocyclopenta[3,4]pyrrolo[3,5-b]pyrazin-4-one], the IC70 falls from 252 nM to 113 nM (2.2-fold).

Compared with `CN1CCc2nc(Nc3cc(-c4ccnc(N5CCn6c(cc7c6CC(C)(C)C7)C5=O)c4CO)cn(C)c3=O)sc2C1` [Example 203, 3-[3-(hydroxymethyl)-4-[1-methyl-5-[(5-methyl-6,7-dihydro-4H-thiazolo[5,4-c]pyridin-2-yl)amino]-6-oxo-3-pyridyl]-2-pyridyl]-7,7-dimethyl-1,2,6,8-tetrahydrocyclopenta[3,4]pyrrolo[3,5-b]pyrazin-4-one], `Cn1cc(-c2ccnc(N3CCn4c(cc5c4CC(C)(C)C5)C3=O)c2CO)cc(Nc2cc(C3COC3)[nH]n2)c1=O` [Example 266, 3-[3-(hydroxymethyl)-4-[1-methyl-5-[[5-(oxetan-3-yl)-1H-pyrazol-3-yl]amino]-6-oxo-3-pyridyl]-2-pyridyl]-7,7-dimethyl-1,2,6,8-tetrahydrocyclopenta[3,4]pyrrolo[3,5-b]pyrazin-4-one] is 2.1-fold lower in IC70: 60.5 nM for the first, 29.3 nM for the second.

Going from `Cc1nccc(Nc2cc(-c3cncc(N4CCn5c(cc6c5CC(C)(C)C6)C4=O)c3CO)cn(C)c2=O)n1` [Example 215, 3-[4-(hydroxymethyl)-5-[1-methyl-5-[(2-methylpyrimidin-4-yl)amino]-6-oxo-3-pyridyl]-3-pyridyl]-7,7-dimethyl-1,2,6,8-tetrahydrocyclopenta[3,4]pyrrolo[3,5-b]pyrazin-4-one] to `Cc1nccc(Nc2cc(-c3ccnc(N4CCn5c(cc6c5CC(C)(C)C6)C4=O)c3CO)c[nH]c2=O)n1` [Example 222, 3-[3-(hydroxymethyl)-4-[5-[(2-methylpyrimidin-4-yl)amino]-6-oxo-1H-pyridin-3-yl]-2-pyridyl]-7,7-dimethyl-1,2,6,8-tetrahydrocyclopenta[3,4]pyrrolo[3,5-b]pyrazin-4-one], the IC70 falls from 457 nM to 178 nM (2.6-fold).

`COCCN1CCn2nc(Nc3cc(-c4ccnc(N5CCc6c(sc7c6CC(C)(C)C7)C5=O)c4CO)cn(C)c3=O)cc2C1` [Example 308, 3-[3-(hydroxymethyl)-4-[5-[[5-(2-methoxyethyl)-6,7-dihydro-4H-pyrazolo[1,5-a]pyrazin-2-yl]amino]-1-methyl-6-oxo-3-pyridyl]-2-pyridyl]-7,7-dimethyl-1,2,6,8-tetrahydrocyclopenta[3,4]thieno[1,3-c]pyridin-4-one] and `CN1Cc2cc(Nc3cc(-c4ccnc(N5CCc6c(sc7c6CC(C)(C)C7)C5=O)c4CO)cn(C)c3=O)nn2CC1=O` [Example 317, 3-[3-(hydroxymethyl)-4-[1-methyl-5-[(5-methyl-6-oxo-4,7-dihydropyrazolo[1,5-a]pyrazin-2-yl)amino]-6-oxo-3-pyridyl]-2-pyridyl]-7,7-dimethyl-1,2,6,8-tetrahydrocyclopenta[3,4]thieno[1,3-c]pyridin-4-one] are within 1.5-fold of each other in IC70: 54.6 nM for the first, 58.6 nM for the second.

Compared with `CN1CCn2nc(Nc3cc(-c4ccnc(N5CCn6c(cc7c6CC(C)(C)C7)C5=O)c4CO)nn(C)c3=O)cc2C1` [Example 297, 3-[3-(hydroxymethyl)-4-[1-methyl-5-[(5-methyl-6,7-dihydro-4H-pyrazolo[1,5-a]pyrazin-2-yl)amino]-6-oxo-pyridazin-3-yl]-2-pyridyl]-7,7-dimethyl-1,2,6,8-tetrahydrocyclopenta[3,4]pyrrolo[3,5-b]pyrazin-4-one], `C[C@@H]1COCCN1C(=O)c1ccc(Nc2cc(-c3ccnc(N4CCn5c(cc6c5CC(C)(C)C6)C4=O)c3CO)nn(C)c2=O)nc1` [Example 248, 3-[3-(hydroxymethyl)-4-[1-methyl-5-[[5-[(3R)-3-methylmorpholine-4-carbonyl]-2-pyridyl]amino]-6-oxo-pyridazin-3-yl]-2-pyridyl]-7,7-dimethyl-1,2,6,8-tetrahydrocyclopenta[3,4]pyrrolo[3,5-b]pyrazin-4-one] is 2-fold lower in IC70: 140 nM for the first, 70.3 nM for the second.

First: CC1Cn2nc(Nc3cc(-c4ccnc(N5CCn6c(cc7c6CCCC7)C5=O)c4CO)cn(C)c3=O)cc2CN1C (stereo not drawn) [Example 250, 2-[4-[5-[(5,6-dimethyl-6,7-dihydro-4H-pyrazolo[1,5-a]pyrazin-2-yl)amino]-1-methyl-6-oxo-3-pyridyl]-3-(hydroxymethyl)-2-pyridyl]-3,4,6,7,8,9-hexahydropyrazino[1,2-a]indol-1-one]
Second: Cn1cc(-c2ccnc(N3CCn4c(cc5c4CCCC5)C3=O)c2CO)cc(Nc2ccc3[nH]cnc3n2)c1=O [Example 217, 2-[3-(hydroxymethyl)-4-[5-(1H-imidazo[4,5-b]pyridin-5-ylamino)-1-methyl-6-oxo-3-pyridyl]-2-pyridyl]-3,4,6,7,8,9-hexahydropyrazino[1,2-a]indol-1-one]
The IC70 of the first is 17-fold lower: 171 nM for the first, 2900 nM for the second.

Going from `CN1CCc2nc(Nc3cc(-c4ccnc(-n5ncc6c7c(sc6c5=O)CCCC7)c4CO)cn(C)c3=O)sc2C1` [Example 216, 3-[3-(hydroxymethyl)-4-[1-methyl-5-[(5-methyl-6,7-dihydro-4H-thiazolo[5,4-c]pyridin-2-yl)amino]-6-oxo-3-pyridyl]-2-pyridyl]-6,7,8,9-tetrahydrobenzothiopheno[2,3-d]pyridazin-4-one] to `Cc1cc(Nc2cc(-c3ccnc(-n4ccc5c(cc6n5CCCC6)c4=O)c3CO)cn(C)c2=O)nn1C` [Example 246, 2-[4-[5-[(1,5-dimethylpyrazol-3-yl)amino]-1-methyl-6-oxo-3-pyridyl]-3-(hydroxymethyl)-2-pyridyl]-6,7,8,9-tetrahydropyrido[3,4-b]indolizin-1-one], the IC70 rises from 357 nM to 1700 nM (4.8-fold).

Compared with `Cn1nc(-c2ccnc(N3CCn4c(cc5c4CC(C)(C)C5)C3=O)c2CO)cc(Nc2ccc(C(=O)N3CCOCC3)cn2)c1=O` [Example 226, 3-[3-(hydroxymethyl)-4-[1-methyl-5-[[5-(morpholine-4-carbonyl)-2-pyridyl]amino]-6-oxo-pyridazin-3-yl]-2-pyridyl]-7,7-dimethyl-1,2,6,8-tetrahydrocyclopenta[3,4]pyrrolo[3,5-b]pyrazin-4-one], `C[C@H]1CN(C2COC2)CCN1c1ccc(Nc2cc(-c3ccnc(N4CCn5c(cc6c5CC(C)(C)C6)C4=O)c3C(N)=O)cn(C)c2=O)nc1` [Example 210, 2-(7,7-dimethyl-4-oxo-1,2,6,8-tetrahydrocyclopenta[3,4]pyrrolo[3,5-b]pyrazin-3-yl)-4-[1-methyl-5-[[5-[(2S)-2-methyl-4-(oxetan-3-yl)piperazin-1-yl]-2-pyridyl]amino]-6-oxo-3-pyridyl]pyridine-3-carboxamide] is 7.8-fold higher in IC70: 117 nM for the first, 914 nM for the second.
